A short description of data set [1]: Hydrophobicity index (k'') (RP-HPLC pH 7.5). In kind it is ADME.
Data set [2] has as its target T1, Adenosine receptor A1 (Rattus norvegicus, UniProt P25099).
T1 sequence (P25099 whole entry): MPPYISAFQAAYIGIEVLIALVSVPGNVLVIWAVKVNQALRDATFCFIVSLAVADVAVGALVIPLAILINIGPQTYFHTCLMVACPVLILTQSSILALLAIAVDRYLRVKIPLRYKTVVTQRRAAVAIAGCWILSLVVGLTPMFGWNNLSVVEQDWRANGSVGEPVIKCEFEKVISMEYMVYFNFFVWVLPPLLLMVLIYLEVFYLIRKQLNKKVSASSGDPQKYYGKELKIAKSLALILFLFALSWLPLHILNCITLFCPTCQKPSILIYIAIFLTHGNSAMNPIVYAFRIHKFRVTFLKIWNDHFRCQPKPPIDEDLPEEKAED
Description: Binding affinity against adenosine A1 receptor from rat brain using [3H]CHA as a radioligand.

For data set [3], the target named is T2, Adenosine receptor A2a (Rattus norvegicus, UniProt P30543).
T2 sequence (P30543 whole entry): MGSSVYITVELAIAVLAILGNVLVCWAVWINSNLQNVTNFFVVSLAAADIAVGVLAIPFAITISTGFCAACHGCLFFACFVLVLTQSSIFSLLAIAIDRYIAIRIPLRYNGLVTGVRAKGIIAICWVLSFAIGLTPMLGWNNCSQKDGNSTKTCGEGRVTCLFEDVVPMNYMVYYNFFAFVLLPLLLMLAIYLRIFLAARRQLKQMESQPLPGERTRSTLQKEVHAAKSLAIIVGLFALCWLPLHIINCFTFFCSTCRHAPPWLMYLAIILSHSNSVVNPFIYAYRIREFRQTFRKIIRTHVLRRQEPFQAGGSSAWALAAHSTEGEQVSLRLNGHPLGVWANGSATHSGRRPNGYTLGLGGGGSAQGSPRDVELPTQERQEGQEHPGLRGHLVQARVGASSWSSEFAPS
Description: Functional activity against adenosine A2a receptor from rat aorta.
Data set [4] has as its target T1, Adenosine receptor A1. Nature of the data set: Functional activity against adenosine A1 receptor from rat atria.
In data set [5] the target is T2, Adenosine receptor A2a. The source holds these as a separate data set.
The target of data set [6] is T2, Adenosine receptor A2a. Description: Functional activity against A2a adenosine receptor from rat aorta.

The term Ki denotes the equilibrium dissociation constant of an inhibitor or competing ligand from its target. As usually defined, the EC50 is the concentration that produces a half-maximal response. Read a low EC50 as greater potency. Turning to `CCNC(=O)[C@H]1OC(n2cnc3c(N)nc(C#Cc4ccc(C(N)=O)cc4)nc32)[C@H](O)[C@@H]1O` (stereo not given in full), the “k'” value in data set [1] was 0.32. Also, the Ki is 7500 nM at Adenosine receptor A1 [2] and 1500 nM on Adenosine receptor A2a [5]. The EC50 at Adenosine receptor A2a [3] is 6420 nM; on Adenosine receptor A1 [4], over 10 µM.

For `CCNC(=O)[C@H]1OC(n2cnc3c(N)nc(C#CCCc4ccccc4)nc32)[C@H](O)[C@@H]1O` (stereo not given in full), the “k'” value in data set [1] came out at 3.16. Further, the values for the inhibitory constant (Ki) on Adenosine receptor A1 [2] and on Adenosine receptor A2a [5] were 448 nM and 7 nM, respectively. For the same molecule, the concentration giving a half-maximal response (EC50) at Adenosine receptor A2a [3] is 210 nM; at Adenosine receptor A1 [4], over 10 µM.

`CCNC(=O)[C@H]1OC(n2cnc3c(N)nc(C#Cc4nccs4)nc32)[C@H](O)[C@@H]1O` (stereo not given in full): in data set [1], the “k'” value is on record as 0.55. The results for the inhibition constant Ki at Adenosine receptor A1 [2] and on Adenosine receptor A2a [5] were 85.4 nM and 41.3 nM, respectively. Further, the 50% effective concentration (EC50) on Adenosine receptor A2a [3] turned out to be 28.7 nM; on Adenosine receptor A1 [4], 7.16 µM.

On to `CCNC(=O)[C@H]1OC(n2cnc3c(N)nc(C#Cc4ccc(N)cc4)nc32)[C@H](O)[C@@H]1O` (stereo not given in full), for which, in data set [1], the “k'” value is 0.46. Further, the results for the inhibition constant (Ki) on Adenosine receptor A1 [2] and on Adenosine receptor A2a [5] were 599 nM and 113 nM, respectively. Also, the EC50 on Adenosine receptor A2a [3] was 4070 nM; on Adenosine receptor A1 [4], over 10 µM.

For the molecule `CCNC(=O)[C@H]1OC(n2cnc3c(N)nc(C#Cc4ccc(C)cc4)nc32)[C@H](O)[C@@H]1O` (stereo not given in full), in data set [1], the “k'” value was 3.59. For the same molecule, the inhibition constant Ki is 500 nM at Adenosine receptor A1 [2] and 36.3 nM on Adenosine receptor A2a [5]. Further, the EC50 on Adenosine receptor A2a [3] was found to be 3290 nM; at Adenosine receptor A1 [4] it was 8.53 µM.

As to `CCNC(=O)[C@H]1OC(n2cnc3c(N)nc(C#CCN4CCSCC4)nc32)[C@H](O)[C@@H]1O` (stereo not given in full), the “k'” value in data set [1] is 0.66. The figures for the inhibition constant Ki at Adenosine receptor A1 [2] and on Adenosine receptor A2a [5] were 52.8 nM and 5.9 nM, respectively. Besides, the values for the EC50 on Adenosine receptor A2a [3] and at Adenosine receptor A1 [4] were 223 nM and 0.306 µM, respectively.

As for `CCNC(=O)[C@H]1OC(n2cnc3c(N)nc(C#Cc4cccs4)nc32)[C@H](O)[C@@H]1O` (stereo not given in full), the “k'” value in data set [1] was found to be 1.63. Moreover, the inhibition constant (Ki) on Adenosine receptor A1 [2] came out at 597 nM; on Adenosine receptor A2a [5], 19.5 nM. The EC50 at Adenosine receptor A2a [6] was 227 nM; on Adenosine receptor A1 [4], over 10 µM.

As for `CCNC(=O)[C@H]1O[C@@H](n2cnc3c(N)nc(C#Cc4ccccc4)nc32)[C@H](O)[C@@H]1O`, the “k'” value in data set [1] turned out to be 2.04. The Ki on Adenosine receptor A1 [2] was found to be 698 nM; at Adenosine receptor A2a [5] it was 120 nM. The EC50 at Adenosine receptor A2a [3] was 1500 nM; on Adenosine receptor A1 [4] it was over 10 µM.

Consider `CCNC(=O)[C@H]1OC(n2cnc3c(N)nc(C#Cc4ccco4)nc32)[C@H](O)[C@@H]1O` (stereo not given in full), for which the “k'” value in data set [1] is reported as 1.06. For the same molecule, the Ki on Adenosine receptor A1 [2] was found to be 310 nM; at Adenosine receptor A2a [5], 130 nM. The figures for the concentration giving a half-maximal response (EC50) at Adenosine receptor A2a [3] and at Adenosine receptor A1 [4] were over 10000 nM and over 10 µM, respectively.

Regarding `CCNC(=O)[C@H]1OC(n2cnc3c(N)nc(C#Cc4ccc([N+](=O)[O-])cc4)nc32)[C@H](O)[C@@H]1O` (stereo not given in full), the “k'” value in data set [1] is listed as 1.82. Moreover, the inhibition constant (Ki) at Adenosine receptor A1 [2] is 900 nM; on Adenosine receptor A2a [5], 21.5 nM. For the same molecule, the EC50 at Adenosine receptor A2a [3] was 1210 nM; at Adenosine receptor A1 [4], over 10 µM.

In the case of `CCNC(=O)[C@H]1OC(n2cnc3c(N)nc(C#Cc4ccccc4C=O)nc32)[C@H](O)[C@@H]1O` (stereo not given in full), the “k'” value in data set [1] is 1.14. Also, the values for the Ki on Adenosine receptor A1 [2] and on Adenosine receptor A2a [5] were 6860 nM and 1160 nM, respectively. Further, the EC50 at Adenosine receptor A2a [3] is 1300 nM; on Adenosine receptor A1 [4], over 10 µM.

`CCNC(=O)[C@H]1OC(n2cnc3c(N)nc(C#CCn4ccnc4)nc32)[C@H](O)[C@@H]1O` (stereo not given in full): the “k'” value in data set [1] is given as 0.22. Further, the values for the Ki on Adenosine receptor A1 [2] and at Adenosine receptor A2a [5] were 178 nM and 16.5 nM, respectively. The values for the EC50 at Adenosine receptor A2a [3] and at Adenosine receptor A1 [4] were 753 nM and 3.14 µM, respectively.

In the case of `CCNC(=O)[C@H]1OC(n2cnc3c(N)nc(C#Cc4ccc(F)cc4)nc32)[C@H](O)[C@@H]1O` (stereo not given in full), the “k'” value in data set [1] came to 2.33. In addition, the results for the inhibitory constant (Ki) on Adenosine receptor A1 [2] and at Adenosine receptor A2a [5] were 3310 nM and 81.4 nM, respectively. The half-maximal effective concentration (EC50) was over 10000 nM at Adenosine receptor A2a [3] and over 10 µM on Adenosine receptor A1 [4].

As to `CCNC(=O)[C@H]1OC(n2cnc3c(N)nc(C#Cc4ccncc4)nc32)[C@H](O)[C@@H]1O` (stereo not given in full), the “k'” value in data set [1] is 0.57. For the same molecule, the Ki on Adenosine receptor A1 [2] was determined as 428 nM; at Adenosine receptor A2a [5], 87 nM. Further, the EC50 is over 10000 nM at Adenosine receptor A2a [3] and over 10 µM on Adenosine receptor A1 [4].

In the case of `CCNC(=O)[C@H]1OC(n2cnc3c(N)nc(C#CCN4CCOCC4)nc32)[C@H](O)[C@@H]1O` (stereo not given in full), the “k'” value in data set [1] is 0.28. The inhibition constant Ki at Adenosine receptor A1 [2] was determined as 90.5 nM; at Adenosine receptor A2a [5] it was 27.4 nM. In addition, the half-maximal effective concentration (EC50) turned out to be 531 nM at Adenosine receptor A2a [3] and 0.358 µM on Adenosine receptor A1 [4].

On to `CCNC(=O)[C@H]1OC(n2cnc3c(N)nc(C#Cc4ccc(CC#N)cc4)nc32)[C@H](O)[C@@H]1O` (stereo not given in full), for which the “k'” value in data set [1] was determined as 0.76. Further, the inhibition constant (Ki) is 1600 nM at Adenosine receptor A1 [2] and 54.8 nM at Adenosine receptor A2a [5]. For the same molecule, the EC50 on Adenosine receptor A2a [3] is 6520 nM; on Adenosine receptor A1 [4], over 10 µM.

On to `CCNC(=O)[C@H]1OC(n2cnc3c(N)nc(C#CCc4ccccc4)nc32)[C@H](O)[C@@H]1O` (stereo not given in full), for which the “k'” value in data set [1] worked out at 2.4. Further, the inhibitory constant (Ki) on Adenosine receptor A1 [2] turned out to be 27.4 nM; at Adenosine receptor A2a [5], 1.6 nM. For the same molecule, the figures for the EC50 at Adenosine receptor A2a [3] and on Adenosine receptor A1 [4] were 406 nM and 0.164 µM, respectively.

Regarding `CCNC(=O)[C@H]1OC(n2cnc3c(N)nc(C#Cc4ccc(C=O)cc4)nc32)[C@H](O)[C@@H]1O` (stereo not given in full), in data set [1], the “k'” value was found to be 1.02. The inhibition constant (Ki) at Adenosine receptor A1 [2] stood at 1000 nM; at Adenosine receptor A2a [5], 6.3 nM. Moreover, the EC50 on Adenosine receptor A2a [3] is 110 nM; on Adenosine receptor A1 [4] it was over 10 µM.

For `CCNC(=O)[C@H]1OC(n2cnc3c(N)nc(C#Cc4ccc(C(C)=O)cc4)nc32)[C@H](O)[C@@H]1O` (stereo not given in full), the “k'” value in data set [1] stood at 1.18. For the same molecule, the Ki on Adenosine receptor A1 [2] is over 10000 nM; at Adenosine receptor A2a [5], 187 nM. For the same molecule, the values for the EC50 on Adenosine receptor A2a [3] and at Adenosine receptor A1 [4] were 1670 nM and over 10 µM, respectively.

For `CCNC(=O)[C@H]1OC(n2cnc3c(N)nc(C#Cc4ccc(O)cc4)nc32)[C@H](O)[C@@H]1O` (stereo not given in full), in data set [1], the “k'” value is recorded as 0.66. In addition, the figures for the Ki on Adenosine receptor A1 [2] and at Adenosine receptor A2a [5] were 497 nM and 20.6 nM, respectively. Further, the 50% effective concentration (EC50) at Adenosine receptor A2a [3] was 660 nM; on Adenosine receptor A1 [4], over 10 µM.
